According to US11267807B2, “Use of small molecule inhibitors to KLF10 for modulation of T regulatory cells and cancer immunotherapy” (THE BRIGHAM AND WOMEN'S HOSPITAL, INC., priority 2015, dated 2022):
Read-outs that look alike come from different tables or passages of the source.

Tests used:
Foxp3 = Foxp3 expression by qPCR during conversion of CD4+CD25− T cells to T regs; format: cell-based, mouse; details: 50 μM, FIG. 5
Method: Taken together, these observations indicate that these compounds effectively suppress the KLF10 target gene Foxp3, a critical regulator of T reg cell differentiation.^28
T cells were suspended in TRIzol® reagent (Invitrogen), and total RNA was isolated according to the manufacturer's instructions. Reverse transcriptions were performed by using the Reverse Transcription Kit and QuantiTect SYBR Green reverse transcription-PCR kit from Qiagen for quantitative real-time quantitative PCR analysis on a Mx3000P real-time PCR system (Stratagene) following the manufacturer's instructions. Primers were used to detect mouse FoxP3 as previously described.^12
Mouse spleens were meshed through a cell strainer into Phosphate Buffered Saline (PBS) with 2% Fetal Bovine Serum and 1% Penicillin/Streptomycin, and cells were collected by spinning at 1000 rpm for 10 min. CD4+CD25− T cells were purified by using CD4+CD25+ T cell isolation kit (Miltenyi Biotec) according to the manufacturer's instructions. Briefly, cells were incubated with Biotin-conjugated antibodies, followed by anti-biotin microbeads and PE-conjugated anti-CD25 antibody for 30 min on ice with gentle shaking. […] For flow cytometry, cells were stained with anti-mouse CD25 Alexa Fluo®488 (eBioscience) and analyzed by using multicolor FACS (ARIA; BD Biosciences) as previously described.^12

CD4+CD25− T cells = test: T regulatory cell differentiation assay, flow cytometry; format: cell-based, mouse; details: 3 days culture, FIG. 4A-4C
Method: Mouse spleens were meshed through a cell strainer into Phosphate Buffered Saline (PBS) with 2% Fetal Bovine Serum and 1% Penicillin/Streptomycin, and cells were collected by spinning at 1000 rpm for 10 min. CD4+CD25− T cells were purified by using CD4+CD25+ T cell isolation kit (Miltenyi Biotec) according to the manufacturer's instructions. Briefly, cells were incubated with Biotin-conjugated antibodies, followed by anti-biotin microbeads and PE-conjugated anti-CD25 antibody for 30 min on ice with gentle shaking. Mixtures were loaded into pre-washed LD columns in the Magnetic field, and CD4+ cells were collected and then incubated with anti-PE microbeads. Mixtures were loaded into pre-washed MS columns in the magnetic field to collect CD4+CD25− T cells (non-bound cell fraction). Cells were plated into 12-well plates pre-coated with 1 μg/mL anti-CD3e (eBioscience) overnight in RPMI1640 Medium with 10% FBS, 1% Penicillin/Streptomycin, 1% non-essential amino acids, and 2-mercaptoethanol, 1 μg/mL anti-CD28 (BD Biosciences), and 1 ng/mL TGF-β1 (Peprotech). Cells were cultured at 37° C. up to five days for the conversion of CD4+CD25− T cells to CD4+CD25+ T regs. For flow cytometry, cells were stained with anti-mouse CD25 Alexa Fluo®488 (eBioscience) and analyzed by using multicolor FACS (ARIA; BD Biosciences) as previously described.^12

prostate TRAMP-C2 tumors = test: In vivo prostate TRAMP-C2 tumor model; details: systemic delivery i.p. Day 3, 200 mg/kg, FIG. 13
TGF-beta1 = TGF-beta1 expression in CD4+ T cells isolated from B16 melanoma tumors; format: in vivo; details: mice injected i.p., FIG. 14
KLF10 [1] = target: T1, KLF10 (Homo sapiens, UniProt Q13118); test: Gel mobility shift assay, KLF10 DNA-binding activity; design: GST (N); purchased Novus Biologicals
T1 sequence (Q13118 1-480): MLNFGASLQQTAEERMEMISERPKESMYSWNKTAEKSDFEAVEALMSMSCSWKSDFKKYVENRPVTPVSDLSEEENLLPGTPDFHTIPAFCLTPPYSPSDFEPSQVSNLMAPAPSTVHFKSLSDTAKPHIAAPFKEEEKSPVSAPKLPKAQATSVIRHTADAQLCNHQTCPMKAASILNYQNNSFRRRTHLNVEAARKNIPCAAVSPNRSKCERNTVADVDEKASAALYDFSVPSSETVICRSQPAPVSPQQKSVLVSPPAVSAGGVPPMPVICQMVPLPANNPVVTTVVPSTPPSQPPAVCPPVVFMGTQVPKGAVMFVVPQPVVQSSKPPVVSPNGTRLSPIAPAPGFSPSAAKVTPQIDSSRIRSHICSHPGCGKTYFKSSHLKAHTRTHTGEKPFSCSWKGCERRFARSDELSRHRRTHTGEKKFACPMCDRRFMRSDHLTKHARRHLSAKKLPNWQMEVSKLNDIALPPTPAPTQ
Method: The identified small molecule compounds were next examined for effects on KLF10 DNA-protein binding.
KLF10 recombinant protein was obtained from Novus Biologicals. Oligonucleotides 5′-[…] End-labeled oligos (1 μmol/L) were annealed in a buffer system with 10 mM Tris, 50 mM NaCl, pH 8.0 by heating at 95° C. for 5 min, then slowly cooled to 65° C. for 30 min incubation, and cooled to room temperature. […] Compounds were incubated with KLF10 in a reaction system for 4 hrs at room temperature, and then Biotin-labeled probes were added for a 1 hr incubation. Binding reactions were electrophoresed for 80 min at 100 volts on 6% polyacrylamide gel in 0.5×TBE. The binding reactions were transferred to nylon membranes at 100 volts for 45 min, and transferred DNA was cross-linked to membrane using an HL-2000 Hybrilinker instrument. Biotin-labeled DNAs were detected by chemiluminescence.

B16 melanoma tumor = test: In vivo B16 melanoma tumor model; design: species or system mice
KLF10 [2] = target: T1, KLF10; test: KLF10 CACCC-luciferase reporter assay in transfected HeLa cells; format: cell-based; design: host or cells: HeLa; details: for inhibition at 100 µM: HeLa
GLI = target: T2, GLI (Homo sapiens, UniProt P08151); details: 30 μM, transfected HEK293 cells; cited from earlier work
T2 construct: host or cells: HEK293 (transfected)
T2 sequence (P08151 1-1106): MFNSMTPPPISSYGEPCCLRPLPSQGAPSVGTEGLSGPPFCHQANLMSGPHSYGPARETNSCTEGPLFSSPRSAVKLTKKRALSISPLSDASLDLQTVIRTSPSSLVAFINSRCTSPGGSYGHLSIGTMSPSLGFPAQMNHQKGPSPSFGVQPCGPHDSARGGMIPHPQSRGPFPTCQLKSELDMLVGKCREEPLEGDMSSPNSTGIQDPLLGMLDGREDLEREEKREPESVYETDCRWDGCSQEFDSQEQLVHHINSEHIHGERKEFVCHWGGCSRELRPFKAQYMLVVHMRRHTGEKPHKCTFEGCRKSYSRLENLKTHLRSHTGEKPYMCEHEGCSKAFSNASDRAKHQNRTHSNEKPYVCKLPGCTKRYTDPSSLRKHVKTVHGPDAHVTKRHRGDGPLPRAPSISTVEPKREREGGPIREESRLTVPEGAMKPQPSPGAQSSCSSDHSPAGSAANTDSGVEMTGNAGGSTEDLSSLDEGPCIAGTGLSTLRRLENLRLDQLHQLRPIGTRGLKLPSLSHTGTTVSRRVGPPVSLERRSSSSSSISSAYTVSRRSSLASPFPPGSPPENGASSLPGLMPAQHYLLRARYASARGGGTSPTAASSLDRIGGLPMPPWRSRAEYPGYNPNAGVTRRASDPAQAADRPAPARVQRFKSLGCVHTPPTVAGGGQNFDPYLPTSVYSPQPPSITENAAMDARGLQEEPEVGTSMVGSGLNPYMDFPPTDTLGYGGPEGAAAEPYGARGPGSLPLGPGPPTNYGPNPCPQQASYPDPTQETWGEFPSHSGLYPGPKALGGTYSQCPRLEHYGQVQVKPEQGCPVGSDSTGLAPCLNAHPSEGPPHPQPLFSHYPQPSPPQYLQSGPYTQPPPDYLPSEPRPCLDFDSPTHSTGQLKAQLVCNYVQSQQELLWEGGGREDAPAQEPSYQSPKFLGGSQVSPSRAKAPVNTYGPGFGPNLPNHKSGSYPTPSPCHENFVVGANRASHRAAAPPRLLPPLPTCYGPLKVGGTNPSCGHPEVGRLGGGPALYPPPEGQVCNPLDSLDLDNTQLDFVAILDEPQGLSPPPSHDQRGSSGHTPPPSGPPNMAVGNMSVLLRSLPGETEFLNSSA

[3] = KLF10 reporter activity, 100 μM, Table 1, read-out: % Inhibition at 100 μM (± sd)
[4] = concentration that inhibited 50% of KLF10 reporter activity, Table 1, read-out: IC50

## Cc1sc2nc(SCC(=O)c3ccc(O)c(O)c3)nc(O)c2c1C [#15-09]
Foxp3
  inhibition of Foxp3 expression: 90.8%
CD4+CD25− T cells
  inhibition of the percentage of CD4+CD25+ T regs: 29.2%

## Cc1ccc(OCC(=O)c2cc(C)c(O)cc2O)cc1 [#48]
Prostate TRAMP-C2 tumors
  prostate TRAMP-C2 tumor inhibition: inhibits
TGF-beta1
  TGF-beta1 expression in CD4+ T cells from tumors: reduced TGF-beta1 expression
Foxp3
  inhibition of Foxp3 expression: 84.7%
CD4+CD25− T cells
  inhibition of the percentage of CD4+CD25+ T regs: 57.4%
KLF10 [1]; 8 μM
  inhibition at 8 µM: 11%
KLF10 [1]; 40 μM
  inhibition at 40 µM: 25%
B16 melanoma tumor; local injection Day 0, 20 mg/kg, FIG. 11
  B16 melanoma tumor inhibition: inhibits
B16 melanoma tumor; systemic delivery i.p. Day 3, 200 mg/kg, FIG. 12
  B16 melanoma tumor model inhibition: inhibits
KLF10 [2]; 100 μM, FIG. 1C
  induction of luciferase activity by exogenous KLF10 expression blocked: 96.6%
KLF10 [2]; [3]
  inhibition at 100 µM: 54.5 ± 8%
KLF10 [2]; KLF10 reporter activity, 100 μM, Table 2, read-out: % Inhibition 100 μM (± sd)
  inhibition at 100 µM: 54.5 ± 8%
KLF10 [2]; KLF10 reporter activity, Table 2, read-out: IC50
  IC50: 112 µM
KLF10 [2]; [4]
  IC50: 112 µM
KLF10 [2]; non-linear regression of dose-response, FIG. 2A-2C, read-out: IC50 on KLF10 transcriptional activity
  IC50: 112 µM

## Cc1cc(C(=O)Nc2cnc(O)nc2O)ccc1[N+](=O)[O-] [#77]
KLF10 [2]; [3]
  inhibition at 100 µM: 61.7 ± 2.6%
KLF10 [2]; [4]
  IC50: 10 µM

## OC1=CN=C(O)/C1=C/Nc1ccccc1O [#82]
KLF10 [2]; [3]
  inhibition at 100 µM: 31.9 ± 0.4%

## c1cc(-c2sc(-c3ccncc3)c(-c3ccncc3)c2-c2ccncc2)ccn1 [GANT58]
GLI
  GLI-induced transcription: inhibited

## CN(C)c1ccccc1CN1CCCN(Cc2ccccc2N(C)C)C1c1ccncc1 [GANT61]
GLI
  GLI-induced transcription: inhibited

## Cc1ccc(C(=O)c2cc(O)c(O)c([N+](=O)[O-])c2)cc1 [Tolcapone, reference compound]
KLF10 [2]; [3]
  inhibition at 100 µM: 71.8 ± 0.9%
KLF10 [2]; [4]
  IC50: 50 µM
